This is an account of results in patent US20070099871A1, “Bioreductively-activated prodrugs” (ANGIOGENE PHARMACEUTICALS LIMITED, priority 2003, published 2007).

The nature of series [1]: Metabolism in liver homogenates. To be noted: in air, mouse liver homogenate, NADPH, pH 7.4, 37° C. The class given is in vitro ADME. As for the experimental part:
Metabolic stability of the compounds and unfavorable release of the drug by oxic liver can be assessed by using, for example, this assay. Freshly-excised mouse liver (approximately 1 g) was homogenised in 15 ml of ice-cold 50 mmol d-3 potassium phosphate buffer at pH 7.4. The homogenates were centrifuged at 1000 RPM for 10 min and the supernatants stored on ice. The metabolism of […] prodrug in air was performed with 0.5 ml liver homogenate (∫4 mg of protein by Bradford assay) with 100 μmol dm^−3 NADPH in 50 mmol dm^−3 potassium phosphate buffer at pH 7.4 incubated at 37° C. Samples (60 μl) were taken at regular intervals and added to an equivalent volume of acetonitrile, then mixed and centrifuged at 14, 300 RPM for 2 min prior to product analysis by HPLC. In this test the compound of Example 1 produced combretastatin A4 at a rate of only 3 pmol·min^−1·mg protein^−1. In contrast the corresponding compound 1-(4-methoxy-3-(5-nitrothiene-2-yl)methoxy)phenyl-2-(3,4,5-trimethoxy)phenyl-Z-ethene, lacking the key features of the invention produced combretastatin at a greater rate of 20 pmol·min^−1·mg proteins^−1.

In series [2] the test system is A549 cells. In words: Cellular cytotoxicity (Celltiter 96 MTS assay). As to conditions: A549, 6 h exposure then 72 h incubation. The class given is cell-based. The source says:
The cytotoxic or cytostatic properties of compounds of formula (1) and compounds of formula DrXH can be assessed for example, by use, for example, of this assay. The Celltiter 96® Aqueous One Solution Cell Proliferation Assay kit (Promega Corporation, USA) which is a colorimetric method for determining the number of viable cells in proliferation or cytotoxicity assays was used. In this assay the MTS tetrazolium compound (Owen's Reagent) is bioreduced by viable cells into a coloured formazan product which is soluble in tissue culture medium and can be measured by recording absorbance at 490 nm with a 96 well plate reader. A549 cells were seeded in Eagles Minimum Essential Medium supplemented with 10% foetal calf serum and non-essential amino acids at […] on a 96 well plate and allowed to attach for 24 h. Compounds were dissolved in DMSO and diluted with cell culture medium before addition. The cells were exposed to test compound (0 to 2 μmol dm^−3) for 6 h then incubated for a further 72 h. The MTS reagent was added to each well, left for 4 h, then the absorbance measured at 490 nm with a 96 well plate reader. In this assay the compound of Example 1 had no activity at concentrations up to […] whereas combretastatin A4 reduced cell numbers to 50% of control at a concentration of around 250 nM.

Series [3] deals with T1, Supersomal p450 reductase (Homo sapiens, UniProt P16435).
T1 construct: purchased Gentest P244
T1 sequence (P16435 1-677): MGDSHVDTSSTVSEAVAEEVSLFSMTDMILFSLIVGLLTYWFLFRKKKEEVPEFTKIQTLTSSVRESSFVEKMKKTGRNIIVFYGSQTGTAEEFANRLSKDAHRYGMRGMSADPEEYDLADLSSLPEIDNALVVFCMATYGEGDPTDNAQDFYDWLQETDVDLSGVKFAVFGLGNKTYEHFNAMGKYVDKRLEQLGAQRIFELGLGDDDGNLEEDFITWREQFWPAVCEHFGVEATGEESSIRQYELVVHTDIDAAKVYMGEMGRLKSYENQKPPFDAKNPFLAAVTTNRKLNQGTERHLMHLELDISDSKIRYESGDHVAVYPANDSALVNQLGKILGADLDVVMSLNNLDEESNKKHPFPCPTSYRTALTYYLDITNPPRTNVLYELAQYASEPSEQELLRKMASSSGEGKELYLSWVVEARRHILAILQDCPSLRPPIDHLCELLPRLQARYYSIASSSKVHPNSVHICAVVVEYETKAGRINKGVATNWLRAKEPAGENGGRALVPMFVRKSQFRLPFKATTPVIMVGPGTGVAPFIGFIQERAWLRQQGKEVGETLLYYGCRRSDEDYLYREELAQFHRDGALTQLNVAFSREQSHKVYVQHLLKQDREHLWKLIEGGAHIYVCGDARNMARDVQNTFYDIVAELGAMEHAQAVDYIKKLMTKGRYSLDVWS
Description: Drug release by cytochrome p450 reductase. The class given is biochemical. As to conditions: NADPH, pH 7.4, 37° C. As for the experimental part: Cytochrome p450 reductase is widely expressed in human tumours as well as in a range of normal tissues and is one of a number of enzymes that can catalyse bioreduction. […] Compounds were dissolved in DMSO to a concentration of 625 μM and 20 μL added to a mixture of 50 mmol dm^−3 potassium phosphate buffer at pH 7.4 (2.4 mL), NADPH (20 μL of a 10 mM solution) and 60 μL of Supersomal™ p450 reductase (Gentest; Catalogue number P244) and incubated at 37° C. For experiments under nitrogen the mixture was degassed with nitrogen for 20 minutes prior to compound addition and overgassed with nitrogen during the incubation. Samples (100 μl) were taken at regular intervals and added to an equivalent volume of acetonitrile, then mixed and centrifuged at 14, 300 RPM for 2 min prior to product analysis by HPLC. In this test the compound of Example 1 produced combretastatin A4 at a rate of […]·min^−1·mg protein^−1 under nitrogen but only 110 pmol·min^−1·mg protein^−1 under air.

Like-named read-outs stand apart in the source and are kept apart here. Where only a bound is given, the exact number is not on record here.

As for `COc1ccc(/C=C\c2cc(OC)c(OC)c(OC)c2)cc1OCc1ccc([N+](=O)[O-])s1` [1-(4-methoxy-3-(5-nitrothiene-2-yl)methoxy)phenyl-2-(3,4,5-trimethoxy)phenyl-Z-ethene], the “Rate of combretastatin A4 production” value in series [1] worked out at 20 pmol·min^−1·mg protein^−1.
As for `COc1ccc(/C=C\c2cc(OC)c(OC)c(OC)c2)cc1OC(C)(C)c1ccc([N+](=O)[O-])s1` [Example 1], the IC50 in series [2] (Homo sapiens, read-out: No activity at concentrations up to) was more than 2000 nM. Also, the “Rate of combretastatin A4 production” value in series [3] (under air) was 110 pmol·min^−1·mg protein^−1; in series [3] (under nitrogen), 710 ppmol·min^−1·mg protein^−1.
The term melting point denotes the temperature of the solid-liquid transition. Take `CC(C)(Sc1ncnc2[nH]cnc12)c1ccc([N+](=O)[O-])cc1` [Example 4, 6-(2-(4-nitrophenyl)propan-2-ylsulfanyl)-9H-purine]: the melting point lay in the range of 206 to 208 °C.
On to `COc1ccc(/C=C\c2cc(OC)c(OC)c(OC)c2)cc1O` [combretastatin A4, reference compound], for which the IC50 in series [2] (read-out: Concentration reducing cell numbers to 50% of control) was approximately 250 nM.
